Laboratory results taken from US12448369B2 (Edgewise Therapeutics, Inc., priority 2023, dated 2025).

Each compound was assayed on Rabbit Psoas myofibrils (skeletal myosin ATPase) (assay: Myofibril ATPase assay, rabbit psoas (skeletal) myofibrils). Conditions: rabbit psoas myofibrils; Y75 value.
Assay type: biochemical
Outline: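 Values are concentrations giving 75% (Y75) or 125% (Y125) of vehicle ATPase activity, from 4-parameter logistic fits of normalized rates. Rates came from linear regression of A340 over 75 min, NADH oxidation coupled to ADP via PK-LDH. Enzyme source: skeletal myofibrils from rabbit psoas, pH 7.0 pCa buffer.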

Structure (SMILES)	Skeletal EC25
CC(C(=O)N[C@@H](C)c1ccc(F)cc1F)c1cc2c(C(F)(F)F)nccc2[nH]c1=O (single isomer, unassigned) [compound 3518]	9.37 µM
C[C@H](NC(=O)[C@@H](C)c1cc2c(C3CC3)nccc2[nH]c1=O)c1ccc(F)cc1F (single isomer, unassigned) [compound 356]	157.50 µM
Cc1nc(C#N)ncc1[C@@H](C)NC(=O)Cc1c(C)c2c(C)nccc2[nH]c1=O [compound 464]	0.03 µM
CCOc1nccc2[nH]c(=O)c(CC(=O)N[C@@H](C)c3ccc(F)cc3F)c(C(F)(F)F)c12 [compound 422]	0.03 µM
Cc1c(CC(=O)N[C@@H](C)c2ccc(F)cc2F)c(=O)[nH]c2cnnc(O)c12 [compound 240]	100.00 µM
COc1nccc2[nH]c(=O)c(CC(=O)N[C@@H](C)c3ncc(C#N)cc3F)c(C(F)(F)F)c12 (single isomer, unassigned) [compound 3010]	0.63 µM
Cc1cccc([C@@H](C)NC(=O)Cc2c(C)c3c(C)nccc3[nH]c2=O)c1 (single isomer, unassigned) [compound 339]	100.00 µM
Cc1nccc2[nH]c(=O)c(CC(=O)N[C@@H](C)c3cccc(O)n3)c(C)c12 (single isomer, unassigned) [compound 298]	100.00 µM
Cc1c(CC(=O)N[C@H](C)c2ncc(C#N)cc2F)c(=O)[nH]c2ccnc(C(F)(F)F)c12 (single isomer, unassigned) [compound 226]	0.27 µM
COc1nccc2[nH]c(=O)c(CC(=O)N[C@H](C)c3ncc(C#N)cc3F)c(C(F)(F)F)c12 (single isomer, unassigned) [compound 3009]	100.00 µM
Cc1nccc2[nH]c(=O)c(CC(=O)N[C@@H](C)c3ccccn3)c(C)c12 (single isomer, unassigned) [compound 325]	1.57 µM
COc1nccc2[nH]c(=O)c([C@@H](C)C(=O)N[C@@H](C)c3ccc(F)cc3F)c(C(F)(F)F)c12 (single isomer, unassigned) [compound 425]	1.31 µM
Cc1ccc2[nH]c(=O)c(CC(=O)N[C@@H](C)c3ccc(F)cc3F)c(C(F)(F)F)c2n1 [compound 419]	0.19 µM
Cc1nncc2[nH]c(=O)c(CC(=O)N[C@H](C)c3ncc(C#N)cc3F)cc12 [compound 451]	100.00 µM
Cc1nccc2[nH]c(=O)c(CC(=O)N[C@@H]3CNc4cc(F)cc(F)c43)c(C)c12 (single isomer, unassigned) [compound 181]	0.09 µM
Cc1c(CC(=O)N[C@@H](C)c2ccc(F)cc2F)c(=O)[nH]c2ccnc(N3CCOCC3)c12 [compound 345]	1.83 µM
Cc1cccc([C@H](CO)NC(=O)Cc2c(C)c3c(C)nccc3[nH]c2=O)c1 (single isomer, unassigned) [compound 313]	100.00 µM
Cc1nccc2[nH]c(=O)c(CC(=O)N[C@@H](C)c3ccc(F)cc3F)cc12 [compound 445]	0.43 µM

Same assay, conditions: ‡ Y125 value, not a Y75 value (125% activity relative to no compound); rabbit psoas myofibrils

Structure (SMILES)	Skeletal EC25
Cc1c(C2(C(=O)N[C@@H](C)c3cccc(C#N)n3)CC2)c(=O)[nH]c2ccc(F)c(F)c12 (single isomer, unassigned) [compound 2548]	45.96‡ μM

These compounds were tested on Porcine atria myofibrils (atrial myosin ATPase) (assay: Myofibril ATPase assay, porcine atria myofibrils). Conditions: Y75 value (no ‡ mark); porcine atria myofibrils.
Assay type: biochemical
Outline: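 Y75 (25% inhibition) or Y125 (activation) values come from 4-parameter logistic fits of vehicle-normalized rates. Rates are linear-regression slopes of NADH absorbance at 340 nm, read kinetically over 75 min, with ADP coupled to NADH oxidation via pyruvate kinase/lactate dehydrogenase.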

Structure (SMILES)	Atrial EC25
Cc1c(C2(C(=O)N[C@@H](C)c3cccc(C#N)n3)CC2)c(=O)[nH]c2ccc(F)c(F)c12 (single isomer, unassigned) [compound 2548]	45.39 µM

Same assay, conditions: porcine atria myofibrils; Y75 value (75% activity relative to no compound)

Structure (SMILES)	Atrial EC25
CC(C(=O)N[C@@H](C)c1ccc(F)cc1F)c1cc2c(C(F)(F)F)nccc2[nH]c1=O (single isomer, unassigned) [compound 3518]	2.05 µM
C[C@H](NC(=O)[C@@H](C)c1cc2c(C3CC3)nccc2[nH]c1=O)c1ccc(F)cc1F (single isomer, unassigned) [compound 356]	100.00 µM
Cc1nc(C#N)ncc1[C@@H](C)NC(=O)Cc1c(C)c2c(C)nccc2[nH]c1=O [compound 464]	0.37 µM
CCOc1nccc2[nH]c(=O)c(CC(=O)N[C@@H](C)c3ccc(F)cc3F)c(C(F)(F)F)c12 [compound 422]	100.00 µM
Cc1c(CC(=O)N[C@@H](C)c2ccc(F)cc2F)c(=O)[nH]c2cnnc(O)c12 [compound 240]	100.00 µM
COc1nccc2[nH]c(=O)c(CC(=O)N[C@@H](C)c3ncc(C#N)cc3F)c(C(F)(F)F)c12 (single isomer, unassigned) [compound 3010]	0.70 µM
Cc1cccc([C@@H](C)NC(=O)Cc2c(C)c3c(C)nccc3[nH]c2=O)c1 (single isomer, unassigned) [compound 339]	100.00 µM
Cc1nccc2[nH]c(=O)c(CC(=O)N[C@@H](C)c3cccc(O)n3)c(C)c12 (single isomer, unassigned) [compound 298]	100.00 µM
Cc1c(CC(=O)N[C@H](C)c2ncc(C#N)cc2F)c(=O)[nH]c2ccnc(C(F)(F)F)c12 (single isomer, unassigned) [compound 226]	7.58 µM
COc1nccc2[nH]c(=O)c(CC(=O)N[C@H](C)c3ncc(C#N)cc3F)c(C(F)(F)F)c12 (single isomer, unassigned) [compound 3009]	0.14 µM
Cc1nccc2[nH]c(=O)c(CC(=O)N[C@@H](C)c3ccccn3)c(C)c12 (single isomer, unassigned) [compound 325]	100.00 µM
COc1nccc2[nH]c(=O)c([C@@H](C)C(=O)N[C@@H](C)c3ccc(F)cc3F)c(C(F)(F)F)c12 (single isomer, unassigned) [compound 425]	94.54 µM
Cc1ccc2[nH]c(=O)c(CC(=O)N[C@@H](C)c3ccc(F)cc3F)c(C(F)(F)F)c2n1 [compound 419]	0.49 µM
Cc1nncc2[nH]c(=O)c(CC(=O)N[C@H](C)c3ncc(C#N)cc3F)cc12 [compound 451]	100.00 µM
Cc1nccc2[nH]c(=O)c(CC(=O)N[C@@H]3CNc4cc(F)cc(F)c43)c(C)c12 (single isomer, unassigned) [compound 181]	0.31 µM
Cc1c(CC(=O)N[C@@H](C)c2ccc(F)cc2F)c(=O)[nH]c2ccnc(N3CCOCC3)c12 [compound 345]	10.74 µM
Cc1cccc([C@H](CO)NC(=O)Cc2c(C)c3c(C)nccc3[nH]c2=O)c1 (single isomer, unassigned) [compound 313]	100.00 µM
Cc1nccc2[nH]c(=O)c(CC(=O)N[C@@H](C)c3ccc(F)cc3F)cc12 [compound 445]	2.32 µM

The compounds below were run against T1, Porcine ventricle myofibrils (ventricular myosin ATPase) (Sus scrofa, UniProt P79293) (assay: Myofibril ATPase assay, porcine ventricle myofibrils). Conditions: Y75 value (no ‡ mark); porcine ventricle myofibrils.
T1 construct: Myofibrils from porcine cardiac muscle was isolated from the left ventricle of Yucatan minipigs; tissue Exemplar Genetics; host or cells: left ventricle of Yucatan minipigs, myofibrils prepared in house
T1 sequence (P79293 whole entry): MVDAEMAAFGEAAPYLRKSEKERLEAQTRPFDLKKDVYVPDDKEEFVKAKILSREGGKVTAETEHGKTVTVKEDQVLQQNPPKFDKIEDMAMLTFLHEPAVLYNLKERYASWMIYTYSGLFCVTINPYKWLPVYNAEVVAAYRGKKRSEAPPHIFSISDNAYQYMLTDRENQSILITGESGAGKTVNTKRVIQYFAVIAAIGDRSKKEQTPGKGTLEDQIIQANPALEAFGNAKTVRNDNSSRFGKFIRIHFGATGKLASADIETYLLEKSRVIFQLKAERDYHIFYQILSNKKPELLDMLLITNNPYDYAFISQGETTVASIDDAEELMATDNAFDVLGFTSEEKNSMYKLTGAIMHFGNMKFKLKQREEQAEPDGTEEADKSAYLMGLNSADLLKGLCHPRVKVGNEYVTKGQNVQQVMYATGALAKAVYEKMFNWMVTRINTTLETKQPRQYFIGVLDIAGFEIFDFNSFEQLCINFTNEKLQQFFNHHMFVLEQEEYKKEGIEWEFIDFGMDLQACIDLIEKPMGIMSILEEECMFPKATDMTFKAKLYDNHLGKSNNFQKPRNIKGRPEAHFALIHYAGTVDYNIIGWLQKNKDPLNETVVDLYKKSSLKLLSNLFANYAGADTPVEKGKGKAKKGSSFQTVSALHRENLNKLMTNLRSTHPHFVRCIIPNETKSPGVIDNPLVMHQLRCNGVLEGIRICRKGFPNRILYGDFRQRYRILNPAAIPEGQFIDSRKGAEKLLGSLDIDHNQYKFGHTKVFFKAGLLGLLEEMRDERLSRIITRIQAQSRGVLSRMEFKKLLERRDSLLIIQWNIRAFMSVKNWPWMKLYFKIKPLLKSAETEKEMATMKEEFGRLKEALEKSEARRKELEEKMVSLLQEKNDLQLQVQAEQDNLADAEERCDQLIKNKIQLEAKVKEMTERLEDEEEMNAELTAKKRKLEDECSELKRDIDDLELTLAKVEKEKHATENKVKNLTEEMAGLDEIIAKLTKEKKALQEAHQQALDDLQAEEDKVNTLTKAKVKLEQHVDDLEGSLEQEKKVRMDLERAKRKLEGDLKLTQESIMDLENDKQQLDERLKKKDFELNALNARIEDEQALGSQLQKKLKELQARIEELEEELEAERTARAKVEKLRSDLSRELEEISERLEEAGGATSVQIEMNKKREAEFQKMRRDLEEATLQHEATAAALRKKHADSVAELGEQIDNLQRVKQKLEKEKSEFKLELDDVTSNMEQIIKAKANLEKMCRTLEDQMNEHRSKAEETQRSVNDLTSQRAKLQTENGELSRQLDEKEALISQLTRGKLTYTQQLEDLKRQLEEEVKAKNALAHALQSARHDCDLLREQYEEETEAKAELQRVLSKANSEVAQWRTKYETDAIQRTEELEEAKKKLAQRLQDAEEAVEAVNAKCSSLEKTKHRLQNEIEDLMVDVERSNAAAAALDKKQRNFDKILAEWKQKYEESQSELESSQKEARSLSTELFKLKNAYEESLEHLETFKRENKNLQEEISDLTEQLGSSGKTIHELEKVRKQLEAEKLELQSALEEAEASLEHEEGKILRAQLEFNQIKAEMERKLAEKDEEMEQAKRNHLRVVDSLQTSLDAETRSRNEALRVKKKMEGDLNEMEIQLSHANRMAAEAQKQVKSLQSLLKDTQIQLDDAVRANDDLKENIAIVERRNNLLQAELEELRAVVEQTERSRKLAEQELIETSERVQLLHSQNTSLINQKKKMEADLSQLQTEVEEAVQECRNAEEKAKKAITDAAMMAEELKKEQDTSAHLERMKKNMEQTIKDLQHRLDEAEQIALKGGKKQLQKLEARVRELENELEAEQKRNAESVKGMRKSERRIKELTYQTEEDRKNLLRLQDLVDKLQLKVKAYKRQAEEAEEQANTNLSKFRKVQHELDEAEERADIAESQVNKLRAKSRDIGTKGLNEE
Assay type: biochemical, porcine (Yucatan minipigs)
Outline: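 Read-out: A340 kinetic, NADH consumption coupled to ADP via PK-LDH, 75 min. Yucatan minipig LV myofibrils, pCa buffer (PIPES/CaCl2/EGTA, pH 7.0). Linear-regression slope (mAU/min), vehicle = 100%, 4PL fit; Y75 or Y125 reported.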

Structure (SMILES)	Ventricular EC25
Cc1c(C2(C(=O)N[C@@H](C)c3cccc(C#N)n3)CC2)c(=O)[nH]c2ccc(F)c(F)c12 (single isomer, unassigned) [compound 2548]	100.00 µM

Same assay, conditions: porcine ventricle myofibrils; Y75 value

Structure (SMILES)	Ventricular EC25
CC(C(=O)N[C@@H](C)c1ccc(F)cc1F)c1cc2c(C(F)(F)F)nccc2[nH]c1=O (single isomer, unassigned) [compound 3518]	100.00 µM
C[C@H](NC(=O)[C@@H](C)c1cc2c(C3CC3)nccc2[nH]c1=O)c1ccc(F)cc1F (single isomer, unassigned) [compound 356]	100.00 µM
Cc1nc(C#N)ncc1[C@@H](C)NC(=O)Cc1c(C)c2c(C)nccc2[nH]c1=O [compound 464]	0.18 µM
CCOc1nccc2[nH]c(=O)c(CC(=O)N[C@@H](C)c3ccc(F)cc3F)c(C(F)(F)F)c12 [compound 422]	100.00 µM
Cc1c(CC(=O)N[C@@H](C)c2ccc(F)cc2F)c(=O)[nH]c2cnnc(O)c12 [compound 240]	100.00 µM
COc1nccc2[nH]c(=O)c(CC(=O)N[C@@H](C)c3ncc(C#N)cc3F)c(C(F)(F)F)c12 (single isomer, unassigned) [compound 3010]	3.57 µM
Cc1cccc([C@@H](C)NC(=O)Cc2c(C)c3c(C)nccc3[nH]c2=O)c1 (single isomer, unassigned) [compound 339]	100.00 µM
Cc1nccc2[nH]c(=O)c(CC(=O)N[C@@H](C)c3cccc(O)n3)c(C)c12 (single isomer, unassigned) [compound 298]	100.00 µM
Cc1c(CC(=O)N[C@H](C)c2ncc(C#N)cc2F)c(=O)[nH]c2ccnc(C(F)(F)F)c12 (single isomer, unassigned) [compound 226]	100.00 µM
COc1nccc2[nH]c(=O)c(CC(=O)N[C@H](C)c3ncc(C#N)cc3F)c(C(F)(F)F)c12 (single isomer, unassigned) [compound 3009]	2.17 µM
Cc1nccc2[nH]c(=O)c(CC(=O)N[C@@H](C)c3ccccn3)c(C)c12 (single isomer, unassigned) [compound 325]	100.00 µM
COc1nccc2[nH]c(=O)c([C@@H](C)C(=O)N[C@@H](C)c3ccc(F)cc3F)c(C(F)(F)F)c12 (single isomer, unassigned) [compound 425]	100.00 µM
Cc1ccc2[nH]c(=O)c(CC(=O)N[C@@H](C)c3ccc(F)cc3F)c(C(F)(F)F)c2n1 [compound 419]	100.00 µM
Cc1nncc2[nH]c(=O)c(CC(=O)N[C@H](C)c3ncc(C#N)cc3F)cc12 [compound 451]	100.00 µM
Cc1nccc2[nH]c(=O)c(CC(=O)N[C@@H]3CNc4cc(F)cc(F)c43)c(C)c12 (single isomer, unassigned) [compound 181]	2.51 µM
Cc1c(CC(=O)N[C@@H](C)c2ccc(F)cc2F)c(=O)[nH]c2ccnc(N3CCOCC3)c12 [compound 345]	51.73 µM
Cc1cccc([C@H](CO)NC(=O)Cc2c(C)c3c(C)nccc3[nH]c2=O)c1 (single isomer, unassigned) [compound 313]	100.00 µM
Cc1nccc2[nH]c(=O)c(CC(=O)N[C@@H](C)c3ccc(F)cc3F)cc12 [compound 445]	20.53 µM
